IC50 data for 30 compounds are collected here from US8969565B2, “Imidazo[1,2-b]pyridazine-based compounds, compositions comprising them, and methods of their use” (Lexicon Pharmaceuticals, Inc., priority 2012, dated 2015).

pIC50: −log10 of the molar value.

This assay addresses T1, AAK1 (Homo sapiens, UniProt Q2M2I8).
T1 construct: HA; expressed in transfected cells; host or cells: HEK293F
In words: HEK281 cell-based assay (phospho-mu2 Western blot in transfected HEK293F cells). As to conditions: 3 hours incubation, read-out: CBA IC50. As to the method:
HEK293F cells were cultured in media containing DMEM (Gibco, cat. #11965), 10% FBS (SAFC Biosciences, cat. #12103C), 1×GPS (glutamine, penicillin and streptomycin). On day one, cells were plated on a 10 cm dish so that they are ˜80% confluent at time of transfection. Roughly 12 million cells were in a 10 cm dish at time of transfection. On day two, each dish was transfected with 48 ug DNA and 144 ul Lipofectamine 2000 (Invitrogen, cat.#11668-019). The DNA was comprised of a mixture (per 10 cm dish) containing 3 ug AAK1/HA/pIRES (full length human, NCBI accession no. NP_055726.2), 45 μg Flag/AP2MI/pcDNA (full length human), and 1.5 ml OPTI-MEM. The Lipofectamine 2000 is made up of a mixture (per 10 cm dish) containing 144 μl Lipofectamine 2000 and 1.5 ml OPTI-MEM. Each mixture was transferred to individual 15 ml tubes and incubated at RT for 5 minutes, and then the two mixes were combined and incubated at RT for 20 minutes. Growth media was then aspirated from each 10 cm plate and replaced with 10 ml of DMEM+10% FBS (no GPS). Finally, 3 ml DNA/Lipofectamine mix was added to each 10 cm dish and mix gently followed by incubate of plate overnight at 37° C. and 5% CO2.
On day three, compounds were diluted in 100% DMSO at 1000× final concentration, followed by 3-fold serial dilutions for a total of 5 concentrations tested. Four compounds were tested per 10 cm dish. One ul of each compound dilution was then pipetted into a deep-well, 96-well plate, followed by addition of 500 μl DMEM+0.5% FBS into each well for a 2× final concentration of each compound. Cells were resuspended in a 10 cm dish by simple pipetting (HEK293 cells come off the plate that easy at this point) and then transferred to a 50 ml conical tube and pelleted by centrifugation at 1000 rpm for 5 min. Cell pellets were then resuspended in 2.75 ml DMEM+0.5% FBS per 10 cm dish and 100 μl of cell suspension transferred into each well of 96-well TC plate. Finally, 100 μl of 2× compound diluted in DMEM+0.5% FBS was then added into wells containing cell suspension for a 1× final concentration. Plates were then incubated at 37° C. and 5% CO2 for 3 hours followed by transferring of cell suspensions from each well into 12-tube PCR strips. The PCR strips were spun in a tip rack at 1000 rpm for 5 minutes to pellet cells and media was then removed by pipetting without disturbing the cell pellet.
To prepare for Western Blot analysis, cell pellets were resuspend in 40 ul 1×LDS-PAGE sample buffer (Invitrogen, cat.#NP0008)+2× Halt phophatase and protease inhibitor cocktail (Thermo Scientific, cat.#1861284), followed by sonicating each with microtip sonicator set at 5 for 8-10 seconds. Five ul of 10× NuPage Sample Reducing Agent (with 50 mM DTT) was to each sample followed by heat denaturing at 70 C for 10 min on PCR machine. A total of 10 μl per sample was loaded into each lane of a 4-20% Tris-Glycine Criterion 26-well gel (Biorad, cat.#345-0034) for the phospho-mu2 blot and 10 μl per lane in a 4-12% Bis-Tris (+MES buffer) NuPAGE 26-well gel (Invitrogen, cat.#WG1403BX10) for the mu2 blot. For controls, 2 ng of phospho-mu2 or 20 ng mu2/Flag proteins were loaded in the last well of each gel. After SDS-PAGE, samples on each gel were transferred to PVDF membrane using an iBlot and membranes were blocked for one hour in TBST+5% milk, followed by wash 3× for 5-10 min with TBST. Criterion gels were probed with rabbit anti-phospho-mu2 (1:5000; a rabbit polyclonal antibody produced by New England Peptide and affinity purified at Lexicon) in TBST+5% BSA, whereas, NuPAGE gels were probed with mouse anti-Flag (1:500; Sigma, cat.#F1804) in TBST+5% milk, and these primary antibodies were incubated overnight at 4° C. on a rocker.

T1 sequence (Q2M2I8 1-863 isoform Q2M2I8-2): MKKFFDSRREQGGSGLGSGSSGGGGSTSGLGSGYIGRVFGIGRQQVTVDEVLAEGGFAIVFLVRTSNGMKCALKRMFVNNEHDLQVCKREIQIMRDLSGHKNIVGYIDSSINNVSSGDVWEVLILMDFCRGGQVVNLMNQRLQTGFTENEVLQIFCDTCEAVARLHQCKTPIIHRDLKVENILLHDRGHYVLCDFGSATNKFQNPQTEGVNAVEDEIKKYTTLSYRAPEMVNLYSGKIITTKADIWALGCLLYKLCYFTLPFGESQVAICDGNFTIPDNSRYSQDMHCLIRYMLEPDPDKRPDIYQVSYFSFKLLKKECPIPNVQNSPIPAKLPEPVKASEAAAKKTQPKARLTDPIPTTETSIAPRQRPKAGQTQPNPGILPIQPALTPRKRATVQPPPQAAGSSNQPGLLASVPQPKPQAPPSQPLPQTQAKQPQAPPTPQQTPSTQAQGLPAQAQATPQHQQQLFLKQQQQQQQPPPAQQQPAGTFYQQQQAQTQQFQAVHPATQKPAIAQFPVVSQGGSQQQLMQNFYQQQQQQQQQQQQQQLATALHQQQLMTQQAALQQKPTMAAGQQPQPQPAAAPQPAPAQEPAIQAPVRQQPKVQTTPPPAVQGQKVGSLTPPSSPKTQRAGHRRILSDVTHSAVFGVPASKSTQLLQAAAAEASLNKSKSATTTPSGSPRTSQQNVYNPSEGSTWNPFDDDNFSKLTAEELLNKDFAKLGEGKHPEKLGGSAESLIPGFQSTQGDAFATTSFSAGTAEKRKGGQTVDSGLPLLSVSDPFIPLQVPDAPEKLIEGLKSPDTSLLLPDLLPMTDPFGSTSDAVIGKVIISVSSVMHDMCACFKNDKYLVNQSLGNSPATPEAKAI

As to `CC(C)COCCNc1ccc2ncc(-c3ccc(C(=O)NCCN4CCCC4)cc3)n2n1` [4-(6-((2-isobutoxyethyl)amino)imidazo[1,2-b]pyridazin-3-yl)-N-(2-(pyrrolidin-1-yl)ethyl)benzamide], the negative logarithm of the IC50 (pIC50) was ≥ 7.00.
With `CC(C)OCCNc1ccc2ncc(-c3ccc(C(=O)NCCN4CCCC4)cc3)n2n1` [4-(6-((2-isopropoxyethyl)amino)imidazo[1,2-b]pyridazin-3-yl)-N-(2-(pyrrolidin-1-yl)ethyl)benzamide], the pIC50 is ≥ 7.00.
`COc1ccccc1CCNc1ccc2ncc(-c3ccc(C(N)=O)cc3)n2n1` [4-(6-((2-methoxyphenethyl)amino)imidazo[1,2-b]pyridazin-3-yl)benzamide]: the pIC50 was ≥ 8.00.
On to `NC(=O)c1ccc(-c2cnc3ccc(NCCc4cccc(C(F)(F)F)c4)nn23)cc1` [4-(6-((3-(trifluoromethyl)phenethyl)amino)imidazo[1,2-b]pyridazin-3-yl)benzamide], for which the negative-log IC50 (pIC50) was ≥ 7.00.
As to `CCCCNc1ccc2ncc(-c3ccc(C(=O)NCCNC)c(F)c3)n2n1` [4-(6-(butylamino)imidazo[1,2-b]pyridazin-3-yl)-2-fluoro-N-(2-(methylamino)ethyl)benzamide], the pIC50 is ≥ 7.00.
As for `CCCCNc1ccc2ncc(-c3ccc(C(=O)NCCN(CC)CC)cc3)n2n1` [4-(6-(butylamino)imidazo[1,2-b]pyridazin-3-yl)-N-(2-(diethylamino)ethyl)benzamide], the negative-log IC50 (pIC50) is ≥ 8.00.
For `CCCCNc1ccc2ncc(-c3ccc(C(=O)NCCN(C)C)cc3)n2n1` [4-(6-(butylamino)imidazo[1,2-b]pyridazin-3-yl)-N-(2-(dimethylamino)ethyl)benzamide], the pIC50 is ≥ 7.00.
As for `CCCCNc1ccc2ncc(-c3ccc(C(=O)NCCNC)cc3)n2n1` [4-(6-(butylamino)imidazo[1,2-b]pyridazin-3-yl)-N-(2-(methylamino)ethyl)benzamide], the pIC50 is ≥ 7.00.
`CCCCNc1ccc2ncc(-c3ccc(C(=O)NCCN4CCCC4)cc3)n2n1` [4-(6-(butylamino)imidazo[1,2-b]pyridazin-3-yl)-N-(2-(pyrrolidin-1-yl)ethyl)benzamide]: the pIC50 was ≥ 7.00.
As for `CCCCNc1ccc2ncc(-c3ccc(C(N)=O)cc3)n2n1` [4-(6-(butylamino)imidazo[1,2-b]pyridazin-3-yl)benzamide], the pIC50 was ≥ 7.00.
`CC(C)(O)CCNc1ccc2ncc(-c3ccc(CN)cc3)n2n1` [4-((3-(4-(aminomethyl)phenyl)imidazo[1,2-b]pyridazin-6-yl)amino)-2-methylbutan-2-ol]: the pIC50 is ≥ 7.00.
As to `CCCCNc1ccc2ncc(-c3ccc(C(N)=O)s3)n2n1` [5-(6-(butylamino)imidazo[1,2-b]pyridazin-3-yl)thiophene-2-carboxamide], the pIC50 was ≥ 6.00.
Consider `CCCNc1ccc2ncc(-c3ccc(C=O)s3)n2n1` [5-(6-(propylamino)imidazo[1,2-b]pyridazin-3-yl)thiophene-2-carbaldehyde], for which the negative logarithm of the IC50 (pIC50) is ≥ 6.00.
The result for `CCCCNc1ccc2ncc(C(=O)Nc3cn[nH]c3)n2n1` [6-(butylamino)-N-(1H-pyrazol-4-yl)imidazo[1,2-b]pyridazine-3-carboxamide] reads ≥ 6.00; that for `CCOC(=O)N1CCC[C@H]1CNc1ccc2ncc(-c3ccc(C4CCCN4)cc3)n2n1` (stereo partly drawn) [(2S)-ethyl 2-(((3-(4-(pyrrolidin-2-yl)phenyl)imidazo[1,2-b]pyridazin-6-yl)amino)methyl)pyrrolidine-1-carboxylate], ≥ 7.00; that for `COC(=O)N1CCC[C@H]1CNc1ccc2ncc(-c3ccc(C4CCCN4)cc3)n2n1` (stereo partly drawn) [(2S)-methyl 2-(((3-(4-(pyrrolidin-2-yl)phenyl)imidazo[1,2-b]pyridazin-6-yl)amino)methyl)pyrrolidine-1-carboxylate], ≥ 7.00.
Consider `CCCCNc1ccc2ncc(-c3ccc(C(=O)N4CCC(N)CC4)cc3)n2n1` [(4-aminopiperidin-1-yl)(4-(6-(butylamino)imidazo[1,2-b]pyridazin-3-yl)phenyl)methanone], for which the negative-log IC50 (pIC50) is ≥ 6.00.
Turning to `CC(C)OC(=O)N(C)CCNc1ccc2ncc(-c3ccc([C@H]4CCCN4)cc3)n2n1` [(R)-isopropyl methyl(2-((3-(4-(pyrrolidin-2-yl)phenyl)imidazo[1,2-b]pyridazin-6-yl)amino)ethyl)carbamate], the pIC50 is ≥ 7.00.
Regarding `CCCCNc1ccc2ncc(-c3ccc([C@H]4CCCN4)cc3)n2n1` [(R)—N-butyl-3-(4-(pyrrolidin-2-yl)phenyl)imidazo[1,2-b]pyridazin-6-amine], the pIC50 is ≥ 6.00.
Then `COc1ccccc1-c1cnc2ccc(NC[C@@H]3CCCN3C(=O)CC(C)C)nn12` [(S)-1-(2-(((3-(2-methoxyphenyl)imidazo[1,2-b]pyridazin-6-yl)amino)methyl)pyrrolidin-1-yl)-3-methylbutan-1-one], with ≥ 8.00.
Then `COc1ccccc1-c1cnc2ccc(NC[C@@H]3CCCN3C(C)=O)nn12` [(S)-1-(2-(((3-(2-methoxyphenyl)imidazo[1,2-b]pyridazin-6-yl)amino)methyl)pyrrolidin-1-yl)ethanone], with ≥ 7.00; and `COc1cnccc1-c1cnc2ccc(NC[C@@H]3CCCN3C(=O)CC(C)C)nn12` [(S)-1-(2-(((3-(3-methoxypyridin-4-yl)imidazo[1,2-b]pyridazin-6-yl)amino)methyl)pyrrolidin-1-yl)-3-methylbutan-1-one], with ≥ 8.00; and `COc1cnccc1-c1cnc2ccc(NC[C@@H]3CCCN3C(C)=O)nn12` [(S)-1-(2-(((3-(3-methoxypyridin-4-yl)imidazo[1,2-b]pyridazin-6-yl)amino)methyl)pyrrolidin-1-yl)ethanone], with ≥ 7.00.
For `CC(C)CC(=O)N1CCC[C@H]1CNc1ccc2ncc(-c3ccc(CN)cc3)n2n1` [(S)-1-(2-(((3-(4-(aminomethyl)phenyl)imidazo[1,2-b]pyridazin-6-yl)amino)methyl)pyrrolidin-1-yl)-3-methylbutan-1-one], the pIC50 was ≥ 8.00.
Then `CC(C)CC(=O)N1CCC[C@H]1CNc1ccc2ncc(Br)n2n1` [(S)-1-(2-(((3-bromoimidazo[1,2-b]pyridazin-6-yl)amino)methyl)pyrrolidin-1-yl)-3-methylbutan-1-one], with ≥ 7.00.
The result for `CCCCNc1ccc2ncc(-c3ccc(CNC(=O)[C@@H](N)CC(C)C)cc3)n2n1` [(S)-2-amino-N-(4-(6-(butylamino)imidazo[1,2-b]pyridazin-3-yl)benzyl)-4-methylpentanamide] reads ≥ 7.00; that for `NCc1ccc(-c2cnc3ccc(NC[C@@H]4CCCO4)nn23)cc1` [(S)-3-(4-(aminomethyl)phenyl)-N-((tetrahydrofuran-2-yl)methyl)imidazo[1,2-b]pyridazin-6-amine], ≥ 7.00; that for `CC(C)CC(=O)N1CCC[C@H]1CNc1ccc2ncc(-c3ccncc3)n2n1` [(S)-3-methyl-1-(2-(((3-(pyridin-4-yl)imidazo[1,2-b]pyridazin-6-yl)amino)methyl)pyrrolidin-1-yl)butan-1-one], ≥ 7.00.
The result for `CCCCNc1ccc2ncc(-c3ccc([C@@H]4CCCN4)cc3)n2n1` [(S)-N-butyl-3-(4-(pyrrolidin-2-yl)phenyl)imidazo[1,2-b]pyridazin-6-amine] reads ≥ 7.00; that for `CCOC(=O)N1CCC[C@H]1CNc1ccc2ncc(-c3ccccc3OC)n2n1` [(S)-ethyl 2-(((3-(2-methoxyphenyl)imidazo[1,2-b]pyridazin-6-yl)amino)methyl)pyrrolidine-1-carboxylate], ≥ 7.00.
